From patent US20230295197A1, “STAT5 and STAT6 Degraders and Uses Thereof” (REGENTS OF THE UNIVERSITY OF MICHICAN, priority 2022, published 2023)
Like-named read-outs stand apart in the source and are kept apart here.

System: STAT5
Assay: Immunoblotting (Western blot) analysis of STAT5 degradation efficiency of degraders in treated cells
Format: cell-based
Description: Evaluation of the degradation efficiency of degraders may be accomplished by immunoblotting analysis. The representative general protocol is the following:
Cells are maintained in the appropriate culture medium with 10% FBS at 37° C. and an atmosphere of 5% CO2. Cell lines are used within three months of thawing fresh vials. Cells are lysed 1× Cell Lysis Buffer (Cell Signaling Technology, #9803), resolved by SDS-PAGE NuPAGE gel (Thermo Fisher Scientific), and transferred to a PVDF membrane (Millipore). Membranes are blocked using Odyssey TBS Blocker Buffer (LI-COR). IRDye 680RD and 800CW Dye-labeled secondary antibodies (LI-COR) are used. The washed membranes are scanned using Odyssey CLx imager (LI-COR). The intensity of Western blot signaling is quantitated using the Odyssey software. Primary antibodies used are: STAT5 Rabbit mAb (Cell Signaling Technology, #94205), STAT6 Rabbit mAb (Cell Signaling Technology, #5397) and GAPDH mouse monoclonal antibody (Santa Cruz Biotechnology, sc-47724).
To evaluate the degradation efficiency of degraders, immunoblotting analysis was performed. The general protocol is the following.
About 1 million cells for each data point were treated with compounds at indicated concentrations and durations. Untreated and treated cells in cell culture medium were transferred into tubes, followed by centrifugation at 3,000 rpm and 4° C. for 6 min Supernatants were removed from tubes and radioimmunoprecipitation assay (RIPA) lysis buffer supplemented with 1% protease inhibitor cocktail (Fisher Scientific cat. PI87786) and phosphatase inhibitor (Roche cat. 04906837001) were added to tubes containing the remaining cell pellets. The tubes were then left on ice for 30 min and placed in a −80° C. freezer. Subsequently they were thawed in 37° C. water, then centrifuged at 14,000 rpm for 15 min and the cell lysates transferred to new tubes. The concentration of total proteins in each tube was calculated using the Pierce BCA protein Assay kit (cat. 23225). Based on the calculated protein concentration, cell lysates containing approximately the same amount of proteins were transferred to new tubes, then distilled water and 4× Protein Sample Loading Buffer for Western Blots (LI-COR cat. 928-40004) supplemented with 20% of mercaptoethanol (Sigma Aldrich cat. M6250) were added on ice. The cell lysates were then reduced and denatured at 95° C. for 5 min. From the tubes containing cell lysates an equal amount of protein samples (20-40 μg) was loaded into precast 8%, 10%, 4%-12%, or 4%-20% Tris-glycine gels (Novex) filled with Tris-glycine SDS running buffer. After the proteins were resolved, they were transferred onto Immobile-FL PVDF Membrane (Millipore Sigma cat. IPFL00010), using Mini Trans-Blot Electrophoretic Transfer Cell (Bio-Rad 1703930). The membranes were blocked with Intercept Blocking Buffer (LI-COR cat. 927-70001) in LI-COR Western Blot boxes for 1 h at rt. The membranes were washed with 1× Tris-buffered saline-Tween-20 (TBST, 1× solution was made from 20×TBST solution, ThermoFisher Scientific cat. 28360) for 5 min 4 times. The membranes were incubated overnight at 4° C. in Intercept Blocking Buffer supplemented with primary antibodies (normally antibody:buffer 1:1000) and Tween-20. The membranes were washed with TBST for 5 min 4 times and were incubated with Intercept Blocking Buffer supplemented with IRDye 800CE Secondary Antibodies, IRDye 680RD Secondary Antibodies (LI-COR biosciences), Tween-20, and 10% SDS solution, for 1 h at rt. The membranes were then washed with TBST for 5 min 4 times and rinsed with deionized water before drying and scanning with Odyssey Dlx Amazing System (LI-COR). The immunoblots were finally quantified by the software.

[1] = SKNO1 cells, read-out: DC50 S5 SKNO1
[2] = MOLM-16 cells, numeric bound, read-out: DC50 S5 MOLM-16

CN(CCCC#Cc1cccc2c1CN(C1CCC(=O)NC1=O)C2=O)C(=O)CCN(C(=O)[C@@H]1CCCN1C(=O)[C@H](CCc1ccccc1)NC(=O)c1cc2cc(C(F)(F)P(=O)(O)O)ccc2s1)c1ccc(-c2nccs2)cc1 (stereo partly drawn) [Compound 682, ((2-(((2S)-1-((2S)-2-((3-((5-(2-(2,6-dioxopiperidin-3-yl)-1-oxoisoindolin-4-yl)pent-4-yn-1-yl)(methyl)amino)-3-oxopropyl)(4-(thiazol-2-yl)phenyl)carbamoyl)pyrrolidin-1-yl)-1-oxo-4-phenylbutan-2-yl)carbamoyl)benzo[b]thiophen-5-yl)difluoromethyl)phosphonic acid]
DC50 (KU-812 cells, read-out: DC50 S5 KU-812): 0.1 to 1 µM | DC50 [1]: 0.1 to 1 µM

CC(C)(C)[C@H](NC(=O)c1cc2cc(C(F)(F)P(=O)(O)O)ccc2s1)C(=O)N1CCC[C@H]1C(=O)N(CCC(=O)NCCCC#Cc1cccc2c1CN(C1CCC(=O)NC1=O)C2=O)c1ccc(F)cc1 (stereo partly drawn) [Compound 634, ((2-(((2S)-1-((2S)-2-((3-((5-(2-(2,6-dioxopiperidin-3-yl)-1-oxoisoindolin-4-yl)pent-4-yn-1-yl)amino)-3-oxopropyl)(4-fluorophenyl)carbamoyl)pyrrolidin-1-yl)-3,3-dimethyl-1-oxobutan-2-yl)carbamoyl)benzo[b]thiophen-5-yl)difluoromethyl)phosphonic acid]
DC50 [2]: > 0.3 µM | DC50 [1]: > 10 µM

CC(C)(C)[C@H](NC(=O)c1cc2cc(C(F)(F)P(=O)(O)O)ccc2s1)C(=O)N1C[C@H](OCc2ccc(C#Cc3cccc4c3CN(C3CCC(=O)NC3=O)C4=O)cc2)C[C@H]1C(=O)Nc1ncc(-c2ccccc2)s1 (stereo partly drawn) [Compound 632, ((2-(((2S)-1-((2S,4R)-4-((4-((2-(2,6-dioxopiperidin-3-yl)-1-oxoisoindolin-4-yl)ethynyl)benzyl)oxy)-2-((5-phenylthiazol-2-yl)carbamoyl)pyrrolidin-1-yl)-3,3-dimethyl-1-oxobutan-2-yl)carbamoyl)benzo[b]thiophen-5-yl)difluoromethyl)phosphonic acid]
DC50 [2]: > 0.3 µM

Cc1ccc(N(CCC(=O)NCCCC#Cc2cccc3c2CN(C2CCC(=O)NC2=O)C3=O)C(=O)[C@@H]2CCCN2C(=O)[C@@H](NC(=O)c2cc3cc(C(F)(F)P(=O)(O)O)ccc3s2)C(C)(C)C)cc1 (stereo partly drawn) [Compound 646, ((2-(((2S)-1-((2S)-2-((3-((5-(2-(2,6-dioxopiperidin-3-yl)-1-oxoisoindolin-4-yl)pent-4-yn-1-yl)amino)-3-oxopropyl)(p-tolyl)carbamoyl)pyrrolidin-1-yl)-3,3-dimethyl-1-oxobutan-2-yl)carbamoyl)benzo[b]thiophen-5-yl)difluoromethyl)phosphonic acid]
DC50 [2]: > 0.3 µM | DC50 [1]: 0.1 to 1 µM

CC(C)(C)[C@H](NC(=O)c1cc2cc(C(F)(F)P(=O)(O)O)ccc2s1)C(=O)N1CCC[C@H]1C(=O)N(CC(=O)NCCCCC#Cc1cccc2c1CN(C1CCC(=O)NC1=O)C2=O)c1ccc(Cl)cc1 (stereo partly drawn) [Compound 641, ((2-(((2S)-1-((2S)-2-((4-chlorophenyl)(2-((6-(2-(2,6-dioxopiperidin-3-yl)-1-oxoisoindolin-4-yl)hex-5-yn-1-yl)amino)-2-oxoethyl)carbamoyl)pyrrolidin-1-yl)-3,3-dimethyl-1-oxobutan-2-yl)carbamoyl)benzo[b]thiophen-5-yl)difluoromethyl)phosphonic acid]
DC50 [2]: > 0.3 µM | DC50 [1]: > 10 µM

CC(C)(C)c1ccc(N(CCC(=O)NCCCC#Cc2cccc3c2CN(C2CCC(=O)NC2=O)C3=O)C(=O)[C@@H]2CCCN2C(=O)[C@@H](NC(=O)c2cc3cc(C(F)(F)P(=O)(O)O)ccc3s2)C(C)(C)C)cc1 (stereo partly drawn) [Compound 647, ((2-(((2S)-1-((2S)-2-((4-(tert-butyl)phenyl)(3-((5-(2-(2,6-dioxopiperidin-3-yl)-1-oxoisoindolin-4-yl)pent-4-yn-1-yl)amino)-3-oxopropyl)carbamoyl)pyrrolidin-1-yl)-3,3-dimethyl-1-oxobutan-2-yl)carbamoyl)benzo[b]thiophen-5-yl)difluoromethyl)phosphonic acid]
DC50 [2]: > 0.3 µM | DC50 [1]: 1 to 10 µM
